Data as given in paper PMC11846289, “New tetrahydroisoquinolines bearing nitrophenyl group targeting HSP90 and RET enzymes: synthesis, characterization and biological evaluation” (BMC Chemistry, 2025).
Converted amounts (≈) assume the structure as drawn.

Tests used:
[1] = system: MG-63 (human osteosarcoma); test: one spot 100 µg/ml cytotoxicity, MG-63; format: cell-based; conditions: for inhibition at 100 µg/mL: Homo sapiens, MG-63, percent inhibition, read-out: one spot concentration inhibition, MG-63
[2] = system: CACO2 (colon carcinoma human); test: one spot 100 µg/ml cytotoxicity, CACO2; format: cell-based; conditions: for inhibition at 100 µg/mL: Homo sapiens, Caco-2, percent inhibition, read-out: one spot concentration inhibition, CACO2
[3] = system: H460 (human lung carcinoma); test: one spot 100 µg/ml cytotoxicity, H460; format: cell-based; conditions: for inhibition at 100 µg/mL: Homo sapiens, NCI-H460, percent inhibition, read-out: one spot concentration inhibition, H460
[4] = system: HEPG2 (human liver carcinoma); test: one spot 100 µg/ml cytotoxicity, HEPG2; format: cell-based; conditions: for inhibition at 100 µg/mL: Homo sapiens, HepG2, percent inhibition, read-out: one spot concentration inhibition, HEPG2
[5] = system: HCT116 (colon carcinoma human); test: one spot 100 µg/ml cytotoxicity, HCT116; format: cell-based; conditions: for inhibition at 100 µg/mL: Homo sapiens, HCT-116, percent inhibition, read-out: one spot concentration inhibition, HCT116
[6] = system: HUH7 (human liver carcinoma); test: one spot 100 µg/ml cytotoxicity, HUH7; format: cell-based; conditions: for inhibition at 100 µg/mL: Homo sapiens, Huh-7, percent inhibition, read-out: one spot concentration inhibition, HUH7
MCF7 cell line = test: MTT in vitro cytotoxicity, MCF7; format: cell-based, human; conditions: for Selectivity Index = IC50 of HSF/ IC50 of MCF7: HSF vs MCF7; for IC50: Homo sapiens, read-out: IC50 for MCF7 ± S.D
Procedure: (§1) Using the MTT test method, the in vitro cytotoxicity of our synthesized compounds at different doses ranging from […] was examined in two cell lines, HEPG2 and MCF7, to examine 50% of the cancer cells dying.
(§2) Some of the synthesized compounds were tested as anticancer activity for the IC50 against two cell lines HEPG2 and MCF7 cells according to method. All cell lines were obtained from national cancer institute, Cairo—Egypt.

[7] = system: MCF7 (human breast carcinoma); test: one spot 100 µg/ml cytotoxicity, MCF7; format: cell-based; conditions: for inhibition at 100 µg/mL: Homo sapiens, MCF7, percent inhibition, read-out: one spot concentration inhibition, MCF7
HSF = test: IC50 against normal cell line HSF; format: cell-based, human; conditions: normal skin cell line HSF; for IC50: Homo sapiens, read-out: IC50 FOR HSF ± S.D.
HEPG2 cell line = test: MTT in vitro cytotoxicity, HEPG2; format: cell-based, human; conditions: for Selectivity Index = IC50 of HSF/IC50 of HEPG2: HSF vs HEPG2; for IC50: Homo sapiens, read-out: IC50 for HEPG2 ± S.D
Procedure: as §1, §2

[8] = system: A549 (human lung carcinoma); test: one spot 100 µg/ml cytotoxicity, A549; format: cell-based; conditions: for inhibition at 100 µg/mL: Homo sapiens, A549, percent inhibition, read-out: one spot concentration inhibition, A549
[9] = system: normal human skin cell line (HSF); test: one spot 100 µg/ml cytotoxicity, normal skin cell line HSF; format: cell-based; conditions: for cytotoxicity at 100 µg/mL / inhibition at 100 µg/mL: Homo sapiens; for cytotoxicity at 100 µg/mL: HSF, read-out: Inhibition percent of HSF cell line; for inhibition at 100 µg/mL: read-out: one spot concentration inhibition, HSF

CC(=O)C1C(c2cccc([N+](=O)[O-])c2)c2c(C)[nH]c(=S)c(C#N)c2CC1(C)O (centres unmarked) [Compound 2a, 7-Acetyl-4-cyano-1,6-dimethyl-6-hydroxy-8-(3-nitrophenyl)−5,6,7,8-tetra-hydroisoquinoline-3(2H)-thione]
inhibition at 100 µg/mL [1]: 41.9% | inhibition at 100 µg/mL [2]: 55.1% | inhibition at 100 µg/mL [3]: 55.3% | inhibition at 100 µg/mL [4]: 61.3% | inhibition at 100 µg/mL [5]: 62.3% | inhibition at 100 µg/mL [6]: 27.4% | Selectivity Index = IC50 of HSF/ IC50 of MCF7 (MCF7 cell line): > 2 | Selectivity Index = IC50 of HSF/ IC50 of MCF7 (MCF7 cell line; listed as 2A): 2.8 | IC50 (MCF7 cell line; MTT, MCF7): 35 ± 0.061 µg/mL (≈ 88.1 µM) | inhibition at 100 µg/mL [7]: 74% | IC50 (HSF): 100 µg/mL (≈ 252 µM) | Selectivity Index = IC50 of HSF/IC50 of HEPG2 (HEPG2 cell line): 1.2 | IC50 (HEPG2 cell line; MTT, HEPG2): 82 ± 0.054 µg/mL (≈ 206 µM) | inhibition at 100 µg/mL [8]: 42.4% | cytotoxicity at 100 µg/mL ([9]; one spot 100 µg/ml): 48% | inhibition at 100 µg/mL ([9]; 100 µg/ml, supplement Table S1): 46.2%

CCOC(=O)CSc1nc(C)c2c(c1C#N)CC(C)(O)C(C(C)=O)C2c1cccc([N+](=O)[O-])c1 (centres unmarked) [Compound 4, Ethyl 2-[(7-acetyl-4-cyano-1,6-dimethyl-6-hydroxy-8-(3-nitrophenyl)−5,6,7,8-tetra-hydroisoquinolin-3-yl)thio]acetate]
inhibition at 100 µg/mL [1]: 53.8% | inhibition at 100 µg/mL [2]: 64.4% | inhibition at 100 µg/mL [3]: 66.8% | inhibition at 100 µg/mL [4]: 62.1% | inhibition at 100 µg/mL [5]: 56.8% | inhibition at 100 µg/mL [6]: 27.5% | Selectivity Index = IC50 of HSF/ IC50 of MCF7 (MCF7 cell line): 2.1 | IC50 (MCF7 cell line; MTT, MCF7): 47 ± 0.055 µg/mL (≈ 97.2 µM) | inhibition at 100 µg/mL [7]: 76.3% | IC50 (HSF): 100 µg/mL (≈ 207 µM) | Selectivity Index = IC50 of HSF/IC50 of HEPG2 (HEPG2 cell line): 1.2 | IC50 (HEPG2 cell line; MTT, HEPG2): 80 ± 0.07 µg/mL (≈ 165 µM) | inhibition at 100 µg/mL [8]: 47.2% | cytotoxicity at 100 µg/mL ([9]; one spot 100 µg/ml): 50% | inhibition at 100 µg/mL ([9]; 100 µg/ml, supplement Table S1): 49.4%

CC(=O)C1C(c2ccc([N+](=O)[O-])cc2)c2c(C)nc(SCC#N)c(C#N)c2CC1(C)O (centres unmarked) [Compound 5, 2-[(7-Acetyl-4-cyano-1,6-dimethyl-6-hydroxy-8-(4-nitrophenyl)−5,6,7,8-tetra-hydroisoquinolin-3-yl)thio]acetoonitriile]
inhibition at 100 µg/mL [1]: 55.7% | inhibition at 100 µg/mL [2]: 61.5% | inhibition at 100 µg/mL [3]: 66.6% | inhibition at 100 µg/mL [4]: 68.2% | inhibition at 100 µg/mL [5]: 58.9% | inhibition at 100 µg/mL [6]: 35.5% | Selectivity Index = IC50 of HSF/ IC50 of MCF7 (MCF7 cell line): 2.1 | IC50 (MCF7 cell line; MTT, MCF7): 33 ± 0.042 µg/mL (≈ 75.6 µM) | inhibition at 100 µg/mL [7]: 67.6% | IC50 (HSF): 71 µg/mL (≈ 163 µM) | Selectivity Index = IC50 of HSF/IC50 of HEPG2 (HEPG2 cell line): 0.73 | IC50 (HEPG2 cell line; MTT, HEPG2): 97 ± 0.053 µg/mL (≈ 222 µM) | inhibition at 100 µg/mL [8]: 55.2% | cytotoxicity at 100 µg/mL ([9]; one spot 100 µg/ml): 70% | inhibition at 100 µg/mL ([9]; 100 µg/ml, supplement Table S1): 66.8%

CC(=O)c1ccc(NC(=O)CSc2nc(C)c3c(c2C#N)CC(C)(O)C(C(C)=O)C3c2cccc([N+](=O)[O-])c2)cc1 (centres unmarked) [Compound 6a, 2-[(7-Acetyl-4-cyano-1,6-dimethyl-6-hydroxy-8-(3-nitrophenyl)−5,6,7,8-tetra-hydroisoquinolin-3-yl)thio]-N-(4-acetylphenyl)acetamide]
inhibition at 100 µg/mL [1]: 45.8% | inhibition at 100 µg/mL [2]: 54.8% | inhibition at 100 µg/mL [3]: 63.5% | inhibition at 100 µg/mL [4]: 59.5% | inhibition at 100 µg/mL [5]: 58.1% | inhibition at 100 µg/mL [6]: 38.6% | Selectivity Index = IC50 of HSF/ IC50 of MCF7 (MCF7 cell line): > 2 | Selectivity Index = IC50 of HSF/ IC50 of MCF7 (MCF7 cell line; listed as 6A): 4.2 | IC50 (MCF7 cell line; MTT, MCF7): 21 ± 0.057 µg/mL (≈ 36.7 µM) | inhibition at 100 µg/mL [7]: 66.4% | IC50 (HSF): 89 µg/mL (≈ 155 µM) | IC50 (HEPG2 cell line; MTT, HEPG2): > 100 µg/mL | inhibition at 100 µg/mL [8]: 20.3% | cytotoxicity at 100 µg/mL ([9]; one spot 100 µg/ml): 56% | inhibition at 100 µg/mL ([9]; 100 µg/ml, supplement Table S1): 53.5%

CC(=O)c1ccc(NC(=O)c2sc3nc(C)c4c(c3c2N)CC(C)(O)C(C(C)=O)C4c2cccc([N+](=O)[O-])c2)cc1 (centres unmarked) [Compound 7a, 7-Acetyl-N-(4-acetylophenyl)−1-amino-5,8-dimethyl-8-hydroxy-6-(3-nitro-phenyl)−6,7,8,9-tetrahydrothieno[2,3-c]isoquinoline-2-carboxamide]
one spot concentration inhibition, MG-63 ([1]; percent inhibition): 50.44% | one spot concentration inhibition, CACO2 ([2]; percent inhibition): 58.2% | one spot concentration inhibition, H460 ([3]; percent inhibition): 59.87% | one spot concentration inhibition, HEPG2 ([4]; percent inhibition): 58.67% | one spot concentration inhibition, HCT116 ([5]; percent inhibition): 59.7% | one spot concentration inhibition, HUH7 ([6]; percent inhibition): 32.35% | Selectivity Index = IC50 of HSF/ IC50 of MCF7 (MCF7 cell line): 1.8 | IC50 for MCF7 ± S.D (MCF7 cell line; MTT, MCF7): 50 ± 0.031 µg/mL | one spot concentration inhibition, MCF7 ([7]; percent inhibition): 57.92% | IC50 FOR HSF ± S.D. (HSF): 90 µg/mL (≈ 157 µM) | Selectivity Index = IC50 of HSF/IC50 of HEPG2 (HEPG2 cell line): 0.92 | IC50 for HEPG2 ± S.D (HEPG2 cell line; MTT, HEPG2): 97 ± 0.054 µg/mL | one spot concentration inhibition, A549 ([8]; percent inhibition): 46.81% | one spot concentration inhibition, HSF ([9]; 100 µg/ml, supplement Table S1): 51.85% | Inhibition percent of HSF cell line ([9]; one spot 100 µg/ml): 55%

CC(=O)C1C(c2cccc([N+](=O)[O-])c2)c2c(C)nc(SCC(=O)Nc3cccc4ccccc34)c(C#N)c2CC1(C)O (centres unmarked) [Compound 8a, 2-[(7-Acetyl-4-cyano-1,6-dimethyl-6-hydroxy-8-(3-nitrophenyl)−5,6,7,8-tetrahydro-isoquinolin-3-yl)thio]-N-(naphthalen-1-yl)acetamide]
inhibition at 100 µg/mL [1]: 38.5% | inhibition at 100 µg/mL [2]: 53.2% | inhibition at 100 µg/mL [3]: 59.6% | inhibition at 100 µg/mL [4]: 60% | inhibition at 100 µg/mL [5]: 56.1% | inhibition at 100 µg/mL [6]: 25.9% | Selectivity Index = IC50 of HSF/ IC50 of MCF7 (MCF7 cell line): 1.6 | IC50 (MCF7 cell line; MTT, MCF7): 50 ± 0.019 µg/mL (≈ 86.1 µM) | inhibition at 100 µg/mL [7]: 72.4% | IC50 (HSF): 84 µg/mL (≈ 145 µM) | Selectivity Index = IC50 of HSF/IC50 of HEPG2 (HEPG2 cell line): 0.95 | IC50 (HEPG2 cell line; MTT, HEPG2): 88 ± 0.072 µg/mL (≈ 152 µM) | inhibition at 100 µg/mL [8]: 46.2% | cytotoxicity at 100 µg/mL ([9]; one spot 100 µg/ml): 59% | inhibition at 100 µg/mL ([9]; 100 µg/ml, supplement Table S1): 56.9%

CC(=O)C1C(c2ccc([N+](=O)[O-])cc2)c2c(C)nc(SCC(=O)Nc3cccc4ccccc34)c(C#N)c2CC1(C)O (centres unmarked) [Compound 8b, 2-[(7-Acetyl-4-cyano-1,6-dimethyl-6-hydroxy-8-(4-nitrophenyl)−5,6,7,8-tetrahydro-isoquinolin-3-yl)thio]-N-(naphthalen-1-yl)acetamide]
inhibition at 100 µg/mL [1]: 57.5% | inhibition at 100 µg/mL [2]: 41.7% | inhibition at 100 µg/mL [3]: 62% | inhibition at 100 µg/mL [4]: 66.6% | inhibition at 100 µg/mL [5]: 67.5% | inhibition at 100 µg/mL [6]: 30.2% | Selectivity Index = IC50 of HSF/ IC50 of MCF7 (MCF7 cell line): > 2 | Selectivity Index = IC50 of HSF/ IC50 of MCF7 (MCF7 cell line; listed as 8B): 8.3 | IC50 (MCF7 cell line; MTT, MCF7): 12 ± 0.056 µg/mL (≈ 20.7 µM) | inhibition at 100 µg/mL [7]: 57.2% | IC50 (HSF): 100 µg/mL (≈ 172 µM) | Selectivity Index = IC50 of HSF/IC50 of HEPG2 (HEPG2 cell line): 1.1 | IC50 (HEPG2 cell line; MTT, HEPG2): 94 ± 0.82 µg/mL (≈ 162 µM) | inhibition at 100 µg/mL [8]: 15.2% | cytotoxicity at 100 µg/mL ([9]; one spot 100 µg/ml): 50% | inhibition at 100 µg/mL ([9]; 100 µg/ml, supplement Table S1): 48.2%
